Here are results for 2 compounds from US12569472B2, “PPARγ agonists for treatment of kidney disease” (The Research Institute at Nationwide Children's Hospital, priority 2020, dated 2026).

Series [1] relates to thrombin generation. Description: Thrombin generation assay (TGA) on platelet poor plasma of rats. It counts as in vivo, rat. The settings on record: PAN rats, plasma Day 11; for ETP (endogenous thrombin potential): Pio 10 mg/kg or GQ-16 40 mg/kg daily. The method, then: (§1) This study was approved by the Institution Animal Care and Use Committee at Nationwide Children's Hospital, and their guidelines were followed when performing the experiments. Male Wistar rats were intravenously (IV) injected with puromycin aminonucleoside (PAN) (Sigma-Aldrich, St. Louis, Mo.) (50 mg/kg) on Day 0, which induced proteinuria, while control rats were given IV injections of saline. The rats were treated by oral gavage with Pioglitazone (Alfa Aesar, Tewksbury, Mass.) (10 mg/kg), GQ-16 (40 mg/kg), or a sham vehicle daily. GQ-16 and Pio dosages were determined based on previous studies, and GQ-16 was synthesized as previously described. Amato et al., The Journal of biological chemistry, 287: 28169-28179 (2012). Spot urine and serum were collected, and body weights were recorded throughout the study. […] Kerlin et al., Journal of the American Society of Nephrology: JASN, 26: 3009-3019 (2015). Kidneys were harvested, and the glomeruli were isolated using the sequential sieving method. Agrawal et al., Sci Rep, 6: 24392 (2016). Liver and white adipose tissue (WAT) epididymal fat were collected and flash frozen in liquid nitrogen.
Thrombin generation assays (TGA) were performed using the Technothrombin® TGA Kit (Technoclone, Vienna, Austria) and Reagent C (RC) Low on PPP samples collected from the rats to determine various parameters such as the endogenous thrombin potential (ETP) and peak thrombin concentration. These assays were performed at least in duplicate on various rat groups (n=4-7/group). Briefly, PPP at 1:1 ratio with buffer was added to black well plates, and RC Low added. Then TGA substrate was added just before reading on a Spectramax M2 Fluorescent Plate Reader (Molecular Devices, San Jose, CA).

Series [2] addresses T1, PPARγ phosphorylation at Ser273 (Homo sapiens, UniProt P37231).
T1 sequence (P37231 1-505): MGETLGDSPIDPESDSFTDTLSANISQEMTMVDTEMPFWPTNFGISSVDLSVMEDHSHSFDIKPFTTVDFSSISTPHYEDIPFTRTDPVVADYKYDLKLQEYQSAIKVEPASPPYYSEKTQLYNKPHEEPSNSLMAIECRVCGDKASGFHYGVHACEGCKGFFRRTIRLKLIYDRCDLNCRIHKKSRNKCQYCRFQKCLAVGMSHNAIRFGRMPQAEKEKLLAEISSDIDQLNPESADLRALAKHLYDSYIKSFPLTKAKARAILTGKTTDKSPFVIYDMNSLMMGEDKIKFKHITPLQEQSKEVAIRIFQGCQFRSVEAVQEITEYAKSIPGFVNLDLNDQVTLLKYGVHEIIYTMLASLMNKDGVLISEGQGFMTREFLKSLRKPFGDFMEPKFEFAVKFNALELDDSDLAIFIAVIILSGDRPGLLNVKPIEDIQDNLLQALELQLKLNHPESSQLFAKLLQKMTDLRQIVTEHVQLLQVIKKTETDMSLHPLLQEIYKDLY
Conditions: in vitro assay; cited from earlier work.

The test system of series [3] is white adipose tissue gene expression (Ap2, Adipoq, Adipsin, Cd36, Pgc1a, Pparg). The experiment in a line: White adipose tissue (epididymal fat) gene expression by qRT-PCR. In kind it is in vivo, rat. Conditions: PAN rats. The method, then: as §1
(§2) Total RNA was extracted from isolated WAT epididymal fat and liver tissue samples using the RNeasy kit (Qiagen, Germantown, MD), following the manufacturer's instructions. Tissue samples in lysis buffer were placed in lock tubes with stainless-steel disruption beads and lysed at 30.0 Hz for 4 minutes using the Qiagen TissueLyser (Germantown, MD), followed by RNA isolation from the resulting lysate. Total RNA was isolated from glomeruli tissue samples using the mirVana™ Isolation Kit (Invitrogen, Carlsbad, CA), according to the manufacturer's instructions. Yield and purity were calculated for all isolated RNA samples by measuring the absorbance at 260, 280, and 230 nm and the ratios (both) with a spectrophotometer. 500 ng-1 μg of RNA was subjected to DNase (Invitrogen, Carlsbad, CA) digestion at room temperature for 15 minutes, which was then inactivated with 25 mM EDTA at 65° C. for 10 min. RNA was reverse transcribed using the iScript cDNA Synthesis Kit (Bio-Rad, Hercules, CA) according to the manufacturer's instructions. cDNA was used for quantitative reverse transcription-polymerase chain reaction (qRT-PCR) using gene specific and house-keeping primers. SYBR green (Bio-Rad, Hercules, Calif.) qRT-PCR was performed on the Applied Biosystems 7500 Real-Time PCR System. The PCR conditions were 95° C. for 10 minutes, 40× (95° C. for 15 seconds, 60° C. for 1 minute), followed by a melt curve to ensure specific products. The annealing temperature was at 60° C. for all genes except Pgc1a, Pparg, and Cd36 for which 52° C. annealing temperature was used. The melt curve conditions were 95° C. for 15 seconds, 60° C. for 1 minute, 30 seconds incremental increase to 95° C. and 60° C. for 15 seconds. The ΔΔCt method was used to analyze the results, including normalization to housekeeping genes (Rpl6 44 for glomeruli, Ppia 45, 46 for fat and liver). Pfaffl, M W, Nucleic acids research, 29: e45, 2001. Due to melt curve variation for Trpc6, amplified samples were also resolved on a 2% agarose gel, and densitometry was performed using ImageJ (National Institutes of Health, Bethesda, MD) software. Each gene was tested in triplicates for each tissue on at least three different rats per group.

Series [4] relates to glomerular gene expression (Nphs1, Nrf2, Trpc6, Pparg). Description: Glomerular gene expression by qRT-PCR. It counts as in vivo, rat. The settings on record: PAN rats. As for the experimental part: as §1
as §2, with “The melt curve conditions were 95° C. for 15 seconds, 60° C. for 1 minute, 30 seconds incremental increase to 95° C. and 60° C. for 15 seconds. The ΔΔCt method was used to analyze the results, including normalization to housekeeping genes (Rpl6 44 for glomeruli, Ppia 45, 46 for fat and liver). Pfaffl, M W, Nucleic acids research, 29: e45, 2001. Due to melt curve variation for Trpc6, amplified samples were also resolved on a 2% agarose gel, and densitometry was performed using ImageJ (National Institutes of Health, Bethesda, MD) software. Each gene was tested in triplicates for each tissue on at least three different rats per group.” left out
A general note: Real-time PCR tracks product formation cycle by cycle.

The test system of series [5] is diabetic mice. The settings on record: in the absence of weight gain and edema; cited from earlier work.
The test system of series [6] is PAN-induced nephropathy in male Wistar rats. Description: PAN-induced nephropathy rat model: proteinuria (urine protein:creatinine ratio). It counts as in vivo. Conditions: Day 11, Pio 10 mg/kg or GQ-16 40 mg/kg daily oral gavage; for Urinary protein/creatinine ratio (UPCr): PAN 50 mg/kg IV. As for the experimental part:
as §1
Urine was collected from rats daily throughout the study and resolved using sodium dodecyl sulfate-polyacrylamide gel electrophoresis (SDS-PAGE) on an 8% gel and stained with Coomassie Brilliant Blue G-250 (Alfa Aesar, Tewksbury, MA) to visualize the albumin bands. Urine protein:creatinine ratio (UPCr) analyses were performed on urine samples from Day 11 at the time of peak proteinuria by Antech Diagnostics GLP (Morrisville, N.C.) to quantify the proteinuria values.

Series [7] deals with T2, PPARγ (Homo sapiens, UniProt P37231).
T2 sequence (P37231 1-505): T1 sequence (P37231 1-505)
Conditions: cited from earlier work.

In series [8] the test system is PAN-induced nephropathy in male Wistar rats. The experiment in a line: Serum chemistry (albumin, cholesterol) in PAN-nephrotic rats. It counts as in vivo, rat. Conditions: for mean reduction of PAN-induced hypercholesterolemia / serum total cholesterol: Day 11; for serum albumin: Day 11, Pio 10 mg/kg or GQ-16 40 mg/kg daily. As for the experimental part:
as §1
Serum albumin and cholesterol were measured using the ACE® albumin and cholesterol reagents (Alfa Wasserman Diagnostic Technologies, LLC, West Caldwell, NJ) on the Vet Axcel (Alfa Wasserman Diagnostic Technologies, LLC, West Caldwell, NJ) at the Clinical Pathology Services, The Ohio State University's College of Veterinary Medicine, according to the manufacturer's instructions.

Series [9] deals with T3, P-PPARγ (Ser273) (Rattus norvegicus, UniProt O88275).
T3 construct: To isolate protein from the glomeruli, liver, and fat tissues, the samples were lysed; from tissue; host or cells: glomeruli isolated from kidneys of male Wistar rats
T3 sequence (O88275 1-505): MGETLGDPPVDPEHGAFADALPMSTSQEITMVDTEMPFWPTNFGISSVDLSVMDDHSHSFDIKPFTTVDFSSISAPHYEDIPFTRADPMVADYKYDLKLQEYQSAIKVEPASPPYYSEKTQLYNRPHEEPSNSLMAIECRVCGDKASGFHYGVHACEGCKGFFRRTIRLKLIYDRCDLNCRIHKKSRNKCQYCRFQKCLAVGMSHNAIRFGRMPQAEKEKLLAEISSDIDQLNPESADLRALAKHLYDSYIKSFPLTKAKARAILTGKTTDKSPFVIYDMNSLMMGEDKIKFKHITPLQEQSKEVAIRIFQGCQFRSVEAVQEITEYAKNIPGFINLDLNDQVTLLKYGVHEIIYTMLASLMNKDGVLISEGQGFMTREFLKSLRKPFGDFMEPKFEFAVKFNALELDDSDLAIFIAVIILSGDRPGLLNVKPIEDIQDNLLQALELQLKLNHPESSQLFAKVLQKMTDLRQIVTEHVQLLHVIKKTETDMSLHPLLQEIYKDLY
Description: Western blot of glomerular P-PPARγ (Ser273) / total PPARγ. The settings on record: PAN-nephrotic rats. It counts as in vivo. Background: A western blot detects proteins with antibodies after separation by electrophoresis.
Description: Male Wistar rats were intravenously (IV) injected with puromycin aminonucleoside (PAN) (Sigma-Aldrich, St. Louis, Mo.) (50 mg/kg) on Day 0, which induced proteinuria, while control rats were given IV injections of saline. The rats were treated by oral gavage with Pioglitazone (Alfa Aesar, Tewksbury, Mass.) (10 mg/kg), GQ-16 (40 mg/kg), or a sham vehicle daily. […] Spot urine and serum were collected, and body weights were recorded throughout the study. […] Kidneys were harvested, and the glomeruli were isolated using the sequential sieving method.
To isolate protein from the glomeruli, liver, and fat tissues, the samples were lysed in a lock tube with RIPA buffer (1M Tris HCl, 0.5M EDTA, 5M NaCl, 10% SDS) containing protease inhibitor cocktail (Thermo Scientific, Waltham, MA) and phosphatase inhibitor cocktail (Alfa Aesar, Tewksbury, MA) and a stainless-steel disruption bead using a Qiagen TissueLyser (Germantown, Md.). Following lysis/homogenization at 30.0 Hz for 4 minutes (liver and fat) or 1 minute (glomeruli), samples were centrifuged for 10 minutes at 4° C. at 12,000 rpm. The supernatant was collected, and the proteins were resolved by SDS-PAGE and transferred to an Immobilon-P polyvinylidene difluoride (PVDF) Transfer Membrane (Millipore Sigma, St. Louis, MO). […] Protein bands were detected by chemiluminescence using the Chemidoc MP Imaging System (Bio-Rad, Hercules, CA). […]

A short description of series [10]: Body weight in PAN-nephrotic rats. It counts as in vivo, rat. As for the experimental part:
as §1

Series [11] has as its system hepatic gene expression (Pcsk9, Abca1, F2, SerpinC1). The experiment in a line: Hepatic gene expression by qRT-PCR. In kind it is in vivo, rat. As for the experimental part:
as §1
as §2, with “The melt curve conditions were 95° C. for 15 seconds, 60° C. for 1 minute, 30 seconds incremental increase to 95° C. and 60° C. for 15 seconds. The ΔΔCt method was used to analyze the results, including normalization to housekeeping genes (Rpl6 44 for glomeruli, Ppia 45, 46 for fat and liver). Pfaffl, M W, Nucleic acids research, 29: e45, 2001. Due to melt curve variation for Trpc6, amplified samples were also resolved on a 2% agarose gel, and densitometry was performed using ImageJ (National Institutes of Health, Bethesda, MD) software. Each gene was tested in triplicates for each tissue on at least three different rats per group.” left out

Series [12] concerns thrombin generation. The settings on record: previous study; cited from earlier work.
The conditions of series [13]: in vivo; cited from earlier work.

“And” between values parts separate entries of the source, which are not always exact repeats. Equal values may be shown once.

On to `COc1ccc(Br)cc1/C=C1\SC(=O)N(Cc2ccc(C)cc2)C1=O` [GQ-16, 5-(5-bromo-2-methoxy-benzylidine)-3-(4-methyl-benzyl)-thiazolidine-2,4-dione], for which, in [1], the “Lag Phase” value is given as 9.250 ± 1.532 min, the “Peak Thrombin” value is 134.0 ± 35.54 nM, the “Velocity Index” value was determined as 19.91 ± 6.643 nM/min and the “ETP (endogenous thrombin potential)” value is 2544 ± 489.0 nM·min. Besides, the “receptor phosphorylation at Ser273” value in series [2] is on record as “block”. Further, in [3], the “WAT Adipoq expression” value is recorded as “induced more robustly”, the “WAT Adipsin (Cfd) expression” value is reported as “induced more robustly”, the “WAT Ap2 (Fabp4) expression” value is ~2.2 fold and the “WAT Cd36 expression” value is “no significant differences”. Further, in [3], the “WAT Pgc1a expression” value is on record as “trend in increase”; the “WAT Pparg expression” value is “induced”; the “WAT Δ exon 5 splice variant of Pparg, normalized to total Pparg” value is listed as “further reduced”. Besides, in [4] (vs PAN), the “glomerular Nphs1 expression” value was “significantly restored” and the “glomerular Nrf2 expression” value was “marked restoration”. In addition, the “glomerular Pparg expression” value in series [4] (not significant (p=0.06)) was “somewhat increased”. Moreover, in [4] (trend only), the “glomerular Trpc6 expression” value is recorded as “reduction”. Moreover, the insulin sensitivity result in series [5] was “improve”. In [6], the “Urinary protein/creatinine ratio (UPCr)” value came out at 8.01 ± 3.54 mg/mg; the “mean reduction in PAN-induced proteinuria” value is 84% and 81%. Moreover, the Ki – broadly, the equilibrium dissociation constant of an inhibitor or competing ligand from its target – in [7] was 160 nM. Moreover, in series [8], the “mean reduction of PAN-induced hypercholesterolemia” value came out at 86%, the serum total cholesterol worked out at 93.14 ± 13.36 mg/dL and the serum albumin turned out to be 2.64 ± 0.15 g/dL. Further, the “phosphorylation status of PPARγ at Ser273 (glomeruli)” value in series [9] is listed as “unaltered”. For the same compound, in series [10], the “body weight (weight reduction of nephrotic rats)” value is listed as “maintained”. For the same compound, the “hepatic Pcsk9 expression” value in [11] (PAN rats (PAN ~30 fold up)) is on record as “restored to control levels”. Further, in series [11] (PAN rats, tendency, p=0.07), the “hepatic F2 expression” value is “reduced” and the “hepatic SerpinC1 expression” value was “reduced”. Besides, in [11] (PAN rats, trend, p=0.057), the “hepatic Abca1 expression” value is listed as ~23 fold.
As to `CCc1ccc(CCOc2ccc(CC3SC(=O)NC3=O)cc2)nc1` (stereo not shown) [Pio, pioglitazone, reference compound], in series [1], the “Lag Phase” value was 7.714 ± 0.6974 min, the “Peak Thrombin” value was determined as 180.8 ± 29.50 nM, the “Velocity Index” value is listed as 34.67 ± 8.448 nM/min and the “ETP (endogenous thrombin potential)” value was 3509 ± 427.8 nM·min. Besides, the “WAT Ap2 (Fabp4) expression” value in [3] was ~3.4 fold. Further, in [12], the “ETP in healthy control rats” value is listed as “significantly increased”. In addition, in series [6], the “Urinary protein/creatinine ratio (UPCr)” value was 13.17 ± 5.51 mg/mg and the “mean reduction in PAN-induced proteinuria” value was determined as 64%. Further, in series [8], the “mean reduction of PAN-induced hypercholesterolemia” value is reported as 80%, the serum total cholesterol came out at 97.86 ± 12.37 mg/dL and the serum albumin was 2.34 ± 0.14 g/dL. In series [10], the “body weight (weight reduction of nephrotic rats)” value is on record as “did not show any significant difference from control rats”. Besides, in series [13], the half-life – broadly, the time needed for the level to fall by half in the phase considered – was 8 to 9 h and the “time of peak (systemic)” value was 1.5 to 2 h.
